ChEMBL document CHEMBL2157955, “Design, synthesis and anticancer activity of 1-acyl-3-amino-1,4,5,6-tetrahydropyrrolo[3,4-c]pyrazole derivatives” (Bioorg Med Chem Lett, 2012)

Tests used:
HCT-116 [1] = assay: Cytotoxicity against human HCT116 cells after 48 hrs by SRB assay; assay type: functional, cell-based; settings: HCT-116, 48 h
A549 [2] = assay: Ratio of (R)-roscovitine IC50 to compound IC50 for human A549 cells; assay type: functional
[3] = target: Epidermal growth factor receptor (Homo sapiens) (UniProt P00533); assay: Inhibition of human EGFR at 10 uM
Sequence of Epidermal growth factor receptor (Homo sapiens) (P00533 whole entry): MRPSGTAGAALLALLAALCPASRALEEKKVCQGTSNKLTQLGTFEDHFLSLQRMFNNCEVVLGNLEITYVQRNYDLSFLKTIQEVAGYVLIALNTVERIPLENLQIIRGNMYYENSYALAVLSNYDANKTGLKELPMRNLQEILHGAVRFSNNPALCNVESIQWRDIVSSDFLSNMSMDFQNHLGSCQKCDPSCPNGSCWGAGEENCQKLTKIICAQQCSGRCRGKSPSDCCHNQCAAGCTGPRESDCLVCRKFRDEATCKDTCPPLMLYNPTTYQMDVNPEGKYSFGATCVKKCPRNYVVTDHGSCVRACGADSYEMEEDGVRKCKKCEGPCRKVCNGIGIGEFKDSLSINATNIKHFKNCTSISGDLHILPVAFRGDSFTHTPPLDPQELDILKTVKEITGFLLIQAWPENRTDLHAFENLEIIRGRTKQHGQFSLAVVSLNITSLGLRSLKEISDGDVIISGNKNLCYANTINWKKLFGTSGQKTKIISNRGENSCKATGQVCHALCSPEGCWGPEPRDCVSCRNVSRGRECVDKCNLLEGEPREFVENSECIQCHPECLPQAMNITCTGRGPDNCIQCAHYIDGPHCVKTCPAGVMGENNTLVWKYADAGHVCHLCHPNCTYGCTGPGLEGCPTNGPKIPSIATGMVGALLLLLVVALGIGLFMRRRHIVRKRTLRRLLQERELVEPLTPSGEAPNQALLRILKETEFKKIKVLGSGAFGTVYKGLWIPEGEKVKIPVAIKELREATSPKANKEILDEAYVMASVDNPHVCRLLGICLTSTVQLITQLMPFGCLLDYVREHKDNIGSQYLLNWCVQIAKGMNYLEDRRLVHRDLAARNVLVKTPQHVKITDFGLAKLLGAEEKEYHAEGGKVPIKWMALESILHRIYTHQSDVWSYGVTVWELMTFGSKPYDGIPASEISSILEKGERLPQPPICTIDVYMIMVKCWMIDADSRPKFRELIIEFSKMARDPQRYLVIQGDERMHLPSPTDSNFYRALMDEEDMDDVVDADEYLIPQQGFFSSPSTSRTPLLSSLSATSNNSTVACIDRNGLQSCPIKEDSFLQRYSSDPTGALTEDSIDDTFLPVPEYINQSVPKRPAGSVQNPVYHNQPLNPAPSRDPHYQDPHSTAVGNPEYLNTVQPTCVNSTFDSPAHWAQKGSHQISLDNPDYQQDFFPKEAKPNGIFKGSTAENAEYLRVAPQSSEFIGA

[4] = target: Cyclin-dependent kinase 7/ cyclin H (Homo sapiens) (UniProt P51946+P50613); assay: Inhibition of human CDK7/CyclinH/MAT1 at 10 uM; assay type: protein-complex assay
[5] = target: Cyclin-dependent kinase 1/cyclin B1 (Homo sapiens) (UniProt P06493+P14635); assay: Inhibition of human CDK1/cyclinB at 10 uM; assay type: protein-complex assay
Sequence of Cyclin-dependent kinase 1/cyclin B1 (Homo sapiens) (P06493 whole entry, looked up): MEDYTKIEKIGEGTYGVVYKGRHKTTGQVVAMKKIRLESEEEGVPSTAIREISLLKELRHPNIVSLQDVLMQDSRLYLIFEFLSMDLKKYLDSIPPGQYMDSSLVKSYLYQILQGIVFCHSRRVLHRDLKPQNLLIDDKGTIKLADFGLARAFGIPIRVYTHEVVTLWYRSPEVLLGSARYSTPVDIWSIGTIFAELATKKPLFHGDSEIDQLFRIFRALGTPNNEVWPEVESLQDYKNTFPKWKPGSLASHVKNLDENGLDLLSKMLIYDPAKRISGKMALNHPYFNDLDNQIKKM
Sequence of Cyclin-dependent kinase 1/cyclin B1 (Homo sapiens) (P14635 whole entry, looked up): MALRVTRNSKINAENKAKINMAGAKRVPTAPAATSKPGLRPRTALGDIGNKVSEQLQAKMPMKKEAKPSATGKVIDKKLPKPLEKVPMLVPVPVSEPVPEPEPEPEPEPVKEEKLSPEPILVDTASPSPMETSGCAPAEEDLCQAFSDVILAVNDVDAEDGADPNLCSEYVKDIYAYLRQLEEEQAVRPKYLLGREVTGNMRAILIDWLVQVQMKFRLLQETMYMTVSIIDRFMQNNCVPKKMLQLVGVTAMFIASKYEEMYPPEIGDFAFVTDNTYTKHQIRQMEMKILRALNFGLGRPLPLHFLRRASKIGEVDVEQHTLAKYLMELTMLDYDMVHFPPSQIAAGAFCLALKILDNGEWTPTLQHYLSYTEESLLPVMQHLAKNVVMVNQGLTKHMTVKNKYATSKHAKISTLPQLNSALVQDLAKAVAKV

[6] = target: T1, Aurora kinase A (Homo sapiens) (UniProt O14965); assay: Inhibition of human Aurora A kinase at 10 uM
T1 sequence (whole entry): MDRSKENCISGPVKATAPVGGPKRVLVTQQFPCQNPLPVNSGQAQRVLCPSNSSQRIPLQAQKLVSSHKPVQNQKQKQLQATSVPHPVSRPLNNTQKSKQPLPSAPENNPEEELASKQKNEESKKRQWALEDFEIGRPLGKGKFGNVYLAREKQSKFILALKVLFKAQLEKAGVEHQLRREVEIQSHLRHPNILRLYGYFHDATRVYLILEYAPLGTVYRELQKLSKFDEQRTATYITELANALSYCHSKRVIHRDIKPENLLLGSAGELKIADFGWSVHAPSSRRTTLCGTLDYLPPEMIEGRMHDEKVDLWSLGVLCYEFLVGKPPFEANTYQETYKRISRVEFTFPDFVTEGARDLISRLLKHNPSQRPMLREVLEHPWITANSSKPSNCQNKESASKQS

[7] = target: Serine/threonine-protein kinase mTOR (Homo sapiens) (UniProt P42345); assay: Inhibition of human mTOR at 10 uM
HT-1080 [8] = assay: Ratio of (R)-roscovitine IC50 to compound IC50 for human HT1080 cells; assay type: functional
[9] = target: Glycogen synthase kinase-3 beta (Homo sapiens) (UniProt P49841); assay: Inhibition of human GSK3beta at 10 uM
Sequence of Glycogen synthase kinase-3 beta (Homo sapiens) (P49841 whole entry, looked up): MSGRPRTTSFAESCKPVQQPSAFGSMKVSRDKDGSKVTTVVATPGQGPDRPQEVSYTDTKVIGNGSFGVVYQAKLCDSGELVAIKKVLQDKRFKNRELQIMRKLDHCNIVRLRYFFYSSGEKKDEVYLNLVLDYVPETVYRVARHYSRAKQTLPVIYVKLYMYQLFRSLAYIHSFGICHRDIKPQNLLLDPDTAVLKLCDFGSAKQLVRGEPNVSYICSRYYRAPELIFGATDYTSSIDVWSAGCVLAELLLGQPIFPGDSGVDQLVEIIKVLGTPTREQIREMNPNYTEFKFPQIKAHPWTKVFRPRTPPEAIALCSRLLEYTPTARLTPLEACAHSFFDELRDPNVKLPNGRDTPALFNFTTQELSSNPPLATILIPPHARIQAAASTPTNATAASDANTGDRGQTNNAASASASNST

A549 [10] = assay: Cytotoxicity against human A549 cells after 48 hrs by SRB assay; assay type: functional, cell-based; settings: A549, 48 h
[11] = target: Aurora kinase B (Homo sapiens) (UniProt Q96GD4); assay: Inhibition of human Aurora B kinase at 10 uM
Sequence of Aurora kinase B (Homo sapiens) (Q96GD4 whole entry): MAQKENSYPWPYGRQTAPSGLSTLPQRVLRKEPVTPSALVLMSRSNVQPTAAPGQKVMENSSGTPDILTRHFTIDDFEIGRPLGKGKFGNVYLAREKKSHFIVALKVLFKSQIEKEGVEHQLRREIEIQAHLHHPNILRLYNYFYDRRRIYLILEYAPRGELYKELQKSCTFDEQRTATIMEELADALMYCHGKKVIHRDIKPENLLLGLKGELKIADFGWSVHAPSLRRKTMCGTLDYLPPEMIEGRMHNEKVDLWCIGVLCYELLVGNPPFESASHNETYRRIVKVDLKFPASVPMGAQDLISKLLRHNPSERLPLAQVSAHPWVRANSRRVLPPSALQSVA

[12] = target: Cyclin-dependent kinase 5/CDK5 activator 1 (Homo sapiens) (UniProt Q00535+Q15078); assay: Inhibition of human CDK5/p25 at 10 uM; assay type: protein-complex assay
Sequence of Cyclin-dependent kinase 5/CDK5 activator 1 (Homo sapiens) (Q00535 whole entry): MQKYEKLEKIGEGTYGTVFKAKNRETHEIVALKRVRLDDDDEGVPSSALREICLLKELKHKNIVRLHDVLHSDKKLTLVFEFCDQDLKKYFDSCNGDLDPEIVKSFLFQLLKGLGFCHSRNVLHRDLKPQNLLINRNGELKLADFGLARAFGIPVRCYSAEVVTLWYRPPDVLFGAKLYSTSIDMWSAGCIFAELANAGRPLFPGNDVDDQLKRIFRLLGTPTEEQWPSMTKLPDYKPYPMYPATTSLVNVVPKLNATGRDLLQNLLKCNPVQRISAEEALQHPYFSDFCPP
Sequence of Cyclin-dependent kinase 5/CDK5 activator 1 (Homo sapiens) (Q15078 99-307 partner limits assumed): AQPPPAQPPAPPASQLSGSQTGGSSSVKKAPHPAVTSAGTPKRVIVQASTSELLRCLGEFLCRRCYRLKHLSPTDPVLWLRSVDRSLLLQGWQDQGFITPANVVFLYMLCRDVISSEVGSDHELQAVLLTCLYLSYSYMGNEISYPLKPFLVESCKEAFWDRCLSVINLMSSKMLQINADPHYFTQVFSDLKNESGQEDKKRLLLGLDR

[13] = target: Cyclin-dependent kinase 2/cyclin E (Homo sapiens) (UniProt P24864+P24941+O96020); assay: Inhibition of human CDK2/cyclin E at 10 uM; assay type: protein-complex assay
[14] = target: Cyclin-dependent kinase 2/cyclin A (Homo sapiens) (UniProt P24941+P20248+P78396); assay: Inhibition of human CDK2/cyclin A at 10 uM; assay type: protein-complex assay
HepG2 [15] = assay: Cytotoxicity against human HepG2 cells after 48 hrs by SRB assay; assay type: functional, cell-based; settings: HepG2, 48 h
HepG2 [16] = assay: Ratio of (R)-roscovitine IC50 to compound IC50 for human HepG2 cells; assay type: functional
HCT-116 [17] = assay: Ratio of (R)-roscovitine IC50 to compound IC50 for human HCT116 cells; assay type: functional
HT-1080 [18] = assay: Cytotoxicity against human HT1080 cells after 48 hrs by SRB assay; assay type: functional, cell-based; settings: HT-1080, 48 h
MCF7 [19] = assay: Cytotoxicity against human MCF7 cells after 48 hrs by SRB assay; assay type: functional, cell-based; settings: MCF7, 48 h
[20] = Cytotoxicity against human L02 cells after 48 hrs by SRB assay; assay type: cell-based; settings: L02, 48 h
HT-29 [21] = assay: Ratio of (R)-roscovitine IC50 to compound IC50 for human HT-29 cells; assay type: functional
HT-29 [22] = assay: Cytotoxicity against human HT-29 cells after 48 hrs by SRB assay; assay type: functional, cell-based; settings: HT-29, 48 h
MCF7 [23] = assay: Ratio of (R)-roscovitine IC50 to compound IC50 for human MCF7 cells; assay type: functional
[24] = target: CDK9/cyclin T1 (Homo sapiens) (UniProt O60563+P50750); assay: Inhibition of human CDK9/CyclinT1 at 10 uM; assay type: protein-complex assay

CCCCNC(=O)N1Cc2c(NC(=O)Cc3ccccc3)nn(C(=O)c3ccccc3)c2C1
IC50 (HCT-116 [1]): 43.1 µM

CC(=O)n1nc(NC(=O)c2ccccc2)c2c1CN(C(=O)c1ccc(-c3ccccc3)cc1)C2
IC50 (HCT-116 [1]): > 90 µM

CC(=O)n1nc(NC(=O)c2ccccc2)c2c1CN(C(=O)c1cccc(F)c1)C2
IC50 (HCT-116 [1]): 21.9 µM

O=C(Nc1nn(C(=O)C2CC2)c2c1CN(C(=O)c1ccccc1)C2)c1ccc(F)cc1
IC50 (HCT-116 [1]): 2.28 µM

CC(=O)n1nc(NC(=O)c2ccccc2)c2c1CN(C(=O)c1ccc([N+](=O)[O-])cc1)C2
IC50 (HCT-116 [1]): 16.2 µM

CCCCNC(=O)N1Cc2c(NC(=O)Cc3ccccc3)nn(C(=O)C3CC3)c2C1
IC50 (HCT-116 [1]): 31.2 µM

CC(=O)n1nc(NC(=O)c2ccccc2)c2c1CN(S(=O)(=O)N(C)C)C2
IC50 (HCT-116 [1]): 35.3 µM

CC(=O)n1nc(NC(=O)c2ccccc2)c2c1CN(C(=O)N(C)C)C2
IC50 (HCT-116 [1]): 70.3 µM

COc1ccc(C(=O)Nc2nn(C(=O)C3CC3)c3c2CN(C(=O)c2ccccc2)C3)cc1
IC50 (HCT-116 [1]): 5.18 µM

CCCCNC(=O)N1Cc2c(NC(=O)c3ccc(F)cc3)nn(C(=O)c3ccccc3)c2C1
IC50 (HCT-116 [1]): 30.8 µM

COc1ccc(C(=O)Nc2nn(C(=O)c3ccccc3)c3c2CN(C(=O)c2ccccc2)C3)cc1
IC50 (HCT-116 [1]): 31.3 µM

CC(=O)n1nc(NC(=O)c2ccccc2)c2c1CN(C(=O)c1ccncc1)C2
IC50 (HCT-116 [1]): 10 µM

CC(=O)n1nc(NC(=O)c2ccccc2)c2c1CN(C(=O)CCl)C2
IC50 (HCT-116 [1]): 4.1 µM

O=C(Nc1nn(C(=O)c2ccccc2)c2c1CN(C(=O)c1ccccc1)C2)c1ccc(F)cc1
IC50 (HCT-116 [1]): 2.78 µM

CC(C)C(=O)n1nc(NC(=O)c2ccccc2)c2c1CN(C(=O)c1ccccc1)C2
IC50 (HCT-116 [1]): 2.02 µM

CCCCNC(=O)N1Cc2c(NC(=O)c3ccccc3)nn(C(=O)c3ccccc3)c2C1
IC50 (HCT-116 [1]): 7.47 µM

CC(=O)n1nc(NC(=O)c2ccccc2)c2c1CN(C(=O)c1ccccc1)C2
Ratio IC50 (A549 [2]): 4 | inhibition [3]: 8% | inhibition [4]: 5% | inhibition [5]: 30% | inhibition [6]: 33% | inhibition [7]: 3% | Ratio IC50 (HT-1080 [8]): 4 | IC50 (HCT-116 [1]): 0.58 µM | inhibition [9]: 67% | IC50 (A549 [10]): 1.74 µM | inhibition [11]: 32% | inhibition [12]: 72% | inhibition [13]: 30% | inhibition [14]: 17% | IC50 (HepG2 [15]): 0.81 µM | Ratio IC50 (HepG2 [16]): 4 | Ratio IC50 (HCT-116 [17]): 28 | IC50 (HT-1080 [18]): 2.13 µM | IC50 (MCF7 [19]): 0.99 µM | IC50 [20]: 2.22 µM | Ratio IC50 (HT-29 [21]): 4 | IC50 (HT-29 [22]): 0.92 µM | Ratio IC50 (MCF7 [23]): 4 | inhibition [24]: 10%

CC(=O)n1nc(NC(=O)c2ccccc2)c2c1CN(C(=O)C1CCC(C)CC1)C2 (stereo not drawn)
IC50 (HCT-116 [1]): 12.2 µM

CCCCNC(=O)N1Cc2c(NC(=O)c3ccc(C)cc3)nn(C(=O)c3ccccc3)c2C1
IC50 (HCT-116 [1]): 23.2 µM

O=C(Nc1nn(C(=O)Cc2ccccc2)c2c1CN(C(=O)c1ccccc1)C2)c1ccccc1
IC50 (HCT-116 [1]): 2.61 µM

CC[C@H](CO)Nc1nc(NCc2ccccc2)c2ncn(C(C)C)c2n1 [SELICICLIB]
IC50 (HCT-116 [1]): 16.4 µM | IC50 (A549 [10]): 14.1 µM | IC50 (HepG2 [15]): 15.5 µM | IC50 (HT-1080 [18]): 9.62 µM | IC50 (MCF7 [19]): 12.2 µM | IC50 [20]: 20.5 µM | IC50 (HT-29 [22]): 11.6 µM

COc1ccc(C(=O)Nc2n[nH]c3c2CN(C(=O)c2ccccc2)C3)cc1
IC50 (HCT-116 [1]): 13.6 µM

CCCCNC(=O)N1Cc2c(NC(=O)c3ccc(C)cc3)nn(C(=O)C3CC3)c2C1
IC50 (HCT-116 [1]): 17.6 µM

CCCCNC(=O)N1Cc2c(NC(=O)c3ccc(OC)cc3)nn(C(=O)C3CC3)c2C1
IC50 (HCT-116 [1]): 65.5 µM

CCCCNC(=O)N1Cc2c(NC(=O)c3ccccc3)nn(C(=O)C3CC3)c2C1
IC50 (HCT-116 [1]): 3.47 µM

O=C(Nc1nn(C(=O)C2CC2)c2c1CN(C(=O)c1ccccc1)C2)c1ccccc1
IC50 (HCT-116 [1]): 1.24 µM

CC(=O)n1nc(NC(=O)c2ccccc2)c2c1CN(C(=O)c1cccc(Cl)c1)C2
IC50 (HCT-116 [1]): 17.4 µM

CCC(=O)n1nc(NC(=O)c2ccccc2)c2c1CN(C(=O)c1ccccc1)C2
IC50 (HCT-116 [1]): 1.06 µM | IC50 (HepG2 [15]): 0.86 µM | IC50 (MCF7 [19]): 1.07 µM | IC50 [20]: 2.47 µM | IC50 (HT-29 [22]): 0.91 µM

O=C(Nc1n[nH]c2c1CN(C(=O)c1ccccc1)C2)c1ccc(F)cc1
IC50 (HCT-116 [1]): 3.19 µM

CCCCNC(=O)N1Cc2c(NC(=O)c3ccc(OC)cc3)nn(C(=O)c3ccccc3)c2C1
IC50 (HCT-116 [1]): 25.3 µM

O=C(Nc1n[nH]c2c1CN(C(=O)c1ccccc1)C2)c1ccccc1
IC50 (HCT-116 [1]): 6.4 µM

O=C(Nc1nn(C(=O)c2ccccc2)c2c1CN(C(=O)c1ccccc1)C2)c1ccccc1
IC50 (HCT-116 [1]): 1.4 µM

CC(=O)n1nc(NC(=O)c2ccccc2)c2c1CN(C(=O)c1cccc([N+](=O)[O-])c1)C2
IC50 (HCT-116 [1]): 17.3 µM

CCCCNC(=O)N1Cc2c(NC(=O)c3ccc(F)cc3)nn(C(=O)C3CC3)c2C1
IC50 (HCT-116 [1]): 23.2 µM

CC(=O)n1nc(NC(=O)c2ccccc2)c2c1CN(S(=O)(=O)c1ccc([N+](=O)[O-])cc1)C2
IC50 (HCT-116 [1]): 22.3 µM
